For data set [1] the following is noted: known; versus H2; cited from earlier work.
Another data set has as its system ulcerative colitis. Briefly: A case of ulcerative colitis improved by hydrogen inhalation (single patient case report). The class given is in vivo, human. The procedure: From around January 2018, the patient was taking a therapeutic agent for ulcerative colitis but was distressed because the disease was not cured with cyclic improvement and worsening. Additionally, the patient became depressed and gloomy, suffering insomnia and weight loss, because of the prolonged symptoms of ulcerative colitis. […] The patient drank two 500 mL PET bottles of hydrogen water per day.

The conditions of data set [2]: room temperature, normal pressure; also printed as 1.6 mg/L; cited from earlier work.
The mark [3] stands for this setting: around June 9, six days after initiation of hydrogen gas inhalation plus hydrogen water.

Take `[2H][2H]` [D2, deuterium]: in data set [1], the “superoxide eliminating effect compared with H2” value is given as “stronger”.
Take `[HH]` [hydrogen gas, molecular hydrogen]: in the data set with ulcerative colitis (setting [3]), the general condition result is reported as “recovered” and the sleep condition entry is “improved”. For the same compound, in the data set with ulcerative colitis (by Aug. 22, 2019), the body weight result was “increased to the healthy weight before the onset of the disease”. In addition, in the data set on ulcerative colitis (by Aug. 22, 2019 (end of inhalation therapy)), the hemorrhage entry is on record as “no hemorrhage was found”. Further, the hemorrhage result in the data set on ulcerative colitis (by Jul. 31, 2019) is reported as “no hemorrhage was found except that blood was attached to the stool only on the day after the patient had drunk alcohol”. In the data set on ulcerative colitis (by Jun. 17, 2019), the “frequency of defecation and patient's vigor” value was “returned to the levels before the onset of the disease”; the “stool consistency (had been watery)” value is on record as “became solid”. Moreover, in the data set with ulcerative colitis (by Jun. 17, 2019 (inhalation started Jun. 3, 2019)), the hemorrhage during defecation entry was “further decreased”. In the data set with ulcerative colitis (endoscopy on Sep. 25, 2019), the “endoscopy: hemorrhage in the rectum (had been filled with blood)” value is on record as “no hemorrhage in the rectum”; the “endoscopy: wall of the small and large intestines” value was “recovered completely”. Moreover, the “endoscopy: several polyps found in the stomach” value with ulcerative colitis (endoscopy on Sep. 25, 2019, inhalation of hydrogen gas and drinking of hydrogen water) is reported as “disappeared”. Further, the “volume of melena during defecation” value with ulcerative colitis (person, ulcerative colitis, around June 9, six days after initiation of hydrogen gas inhalation (approx. 5.0%, 1-3 h/day) plus hydrogen water 7 ppm, two 500 mL bottles/day) is on record as “began to decrease”. Further, the “concentration of hydrogen dissolved in water” value in data set [2] was “approximately 1.6 ppm”.

Source of the values: patent US20210220392A1, “MOLECULAR HYDROGEN-CONTAINING COMPOSITION FOR PREVENTION AND/OR IMPROVEMENT OF INFLAMMATORY BOWEL DISEASE” (MiZ Company Limited, priority 2020, published 2021).
